Assays:
Assay type in all cases: in vivo
[1] = test system: Foxtail, Giant (giant foxtail, Setaria faberi); experiment: Test A1 preemergence, Foxtail, Giant
Summary of the method: (§1)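 Herbicidal response was scored on plants treated either preemergence, by directed spray onto soil of a loam–sand blend after sowing, or postemergence on potted plants at the one- to two-leaf stage, 2–10 cm high. Test chemicals were carried in a non-phytotoxic solvent mix with surfactant.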

[2] = test system: Pigweed, Palmer (palmer amaranth, palmer pigweed, Amaranthus palmeri); experiment: Test A1 postemergence, Pigweed, Palmer; settings: Postemergence
Summary of the method: as §1

[3] = test system: Oat, Wild (wild oat, Avena fatua); experiment: Test A1 preemergence, Oat, Wild
Summary of the method: as §1

[4] = test system: barnyardgrass (Echinochloa crus-galli); experiment: Test B1 flooded paddy test, barnyardgrass; settings: 250 g ai/ha, Flood, applied to paddy water, 2-leaf stage, visually evaluated after 10 to 14 days
Excerpt: (§2) A dash (-) response means no test result.

kochia (Bassia scoparia) = experiment: Test A1 postemergence, kochia; settings: Postemergence
Summary of the method: (§3)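 Plants were grown in a loam soil/sand blend, with test chemicals formulated in a non-phytotoxic solvent mixture containing surfactant. Preemergence treatment (corn) was a directed soil spray at planting. Postemergence treatment was applied to plants 2 to 10 cm tall at the one- to two-leaf stage.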

[5] = test system: Foxtail, Giant (giant foxtail, Setaria faberi); experiment: Test A1 postemergence, Foxtail, Giant; settings: Postemergence
Summary of the method: as §3

[6] = test system: wheat (Triticum aestivum); experiment: Test A1 postemergence, wheat; settings: Postemergence
Summary of the method: as §3

rice (Oryza sativa) = experiment: Test B1 flooded paddy test, rice; settings: 250 g ai/ha, Flood, applied to paddy water, 2-leaf stage, visually evaluated after 10 to 14 days
Excerpt: as §2

[7] = test system: ragweed (common ragweed, Ambrosia artemisiifolia); experiment: Test A1 preemergence, ragweed
Summary of the method: as §1

[8] = 31 g ai/ha, 0 to 100 scale (0 no effect, 100 complete control)
[9] = 125 g ai/ha, 0 to 100 scale, 0 no effect, 100 complete control
[10] = 31 g ai/ha, 0 to 100 scale (0 no effect, 100 complete control), 10 days

| SMILES | Plant response rating, Foxtail, Giant [1, 8] | Plant response rating, Foxtail, Giant [1, 9] | Plant response rating, Pigweed, Palmer [2, 10] | Plant response rating, Pigweed, Palmer ([2]; 125 g ai/ha, 0 to 100 scale) | Plant response rating, Oat, Wild [3, 8] | Plant response rating, Oat, Wild [3, 9] | Plant response rating, Barnyardgrass (0 to 100 scale, 0 is no effect, 100 is complete control) [4] | Plant response rating, Kochia (kochia (Bassia scoparia); [10]) | Plant response rating, Kochia (kochia (Bassia scoparia); 125 g ai/ha, 0 to 100 scale) | Plant response rating, Foxtail, Giant [5, 10] | Plant response rating, Foxtail, Giant ([5]; 125 g ai/ha, 0 to 100 scale) | Plant response rating, Wheat [6, 10] | Plant response rating, Wheat ([6]; 125 g ai/ha, 0 to 100 scale) | Plant response rating, Rice (0 to 100 scale, 0 is no effect, 100 is complete control) (rice (Oryza sativa)) | Plant response rating, Ragweed [7, 8] | Plant response rating, Ragweed [7, 9] |
| --- | --- | --- | --- | --- | --- | --- | --- | --- | --- | --- | --- | --- | --- | --- | --- | --- |
| C#CCN(C)C(=O)c1cc(NS(=O)(=O)C(F)(F)F)c(Cl)c(F)c1C [Compound 337] | 20 | 100 | 30 | 50 | 0 | 20 | 0 | 40 | 70 | 0 | 90 | 0 | 30 | 25 | 70 | 90 |
| COCC1CC(c2cc(N(COC(=O)C(C)(C)C)S(=O)(=O)C(F)(F)F)c(C)cc2C)=NO1 (stereo not drawn) [Compound 338] | 10 | 90 | 0 | 30 | 0 | 0 | 95 | 10 | 60 | 10 | 80 | 20 | 70 | 20 | 0 | 40 |
| CCOC1CC(c2cc(N(COC(=O)C(C)(C)C)S(=O)(=O)C(F)(F)F)c(C)cc2C)=NO1 (stereo not drawn) [Compound 339] | 0 | 20 | 0 | 20 | 0 | 0 | 95 | 30 | 70 | 0 | 50 | 0 | 40 | 20 | 20 | 50 |
| Cc1cc(C)c(C2=NOC3(C)CCCC23)cc1NS(=O)(=O)C(F)(F)F (stereo not drawn) [Compound 340] | 50 | 100 | 0 | 30 | 0 | 90 | 85 | 20 | 50 | 10 | 50 | 50 | 70 | 10 | 10 | 90 |
| Cc1cc(C)c(N(COC(=O)C(C)(C)C)S(=O)(=O)C(F)(F)F)cc1C1=NOC2(C)CCCC12 (stereo not drawn) [Compound 341] | 0 | 50 | 0 | 20 | 0 | 0 | 95 | 20 | 30 | 0 | 20 | 0 | 70 | 55 | 0 | 0 |
| CCC1ON=C(c2cc(NS(=O)(=O)C(F)(F)F)c(C)cc2C)C1CC (stereo not drawn) [Compound 343] | 90 | 100 | 0 | 60 | 0 | 70 | 85 | 20 | 60 | 0 | 30 | 30 | 60 | 40 | 10 | 60 |

Reference: patent US20230278972A1, “SUBSTITUTED HALOALKYL SULFONANILIDE HERBICIDES” (FMC Corporation, priority 2020, published 2023)
